ChEMBL document CHEMBL5352448, “Novel tryptanthrin derivatives with benzenesulfonamide substituents: Design, synthesis, and anti-inflammatory evaluation” (Eur J Med Chem, 2023)
Calls of active or inactive are those of the source. The calls are words filed in the database; no cut-off is given here.

How the values were obtained:
[1] = tested on: RAW264.7; experiment: Antiinflammatory activity in mouse RAW264.7 cells assessed as inhibition of LPS-induced NO production at 20 uM preincubated with compound for 1 hrs followed by LPS-stimulation and measured after 24 hrs by griess reagent based assay relative to control; format: functional
[2] = tested on: RAW264.7; experiment: Cytotoxicity against mouse RAW264.7 cells assessed as reduction in cell viability at 40 uM incubated for 24 hrs by MTT assay; format: toxicity, cell-based; details: raw264.7, 24 h
[3] = tested on: RAW264.7; experiment: Antiinflammatory activity in mouse RAW264.7 cells assessed as inhibition of LPS-induced NO production preincubated with compound for 1 hrs followed by LPS-stimulation and measured after 24 hrs by griess reagent based assay; format: functional, cell-based
[4] = tested on: Rattus norvegicus; experiment: Antiarthritic activity against adjuvant arthritis-induced Sprague-Dawley rat model assessed as decrease in paw swelling pre-administered with FCA for 10 days followed by intragastric administration of compound once daily for 14 days and measured every 4 days; format: functional, organism-based; details: dose 10-30 mg/kg, route ig, time 14.0 day
[5] = tested on: RAW264.7; experiment: Antiinflammatory activity in mouse RAW264.7 cells assessed as inhibition of LPS-induced IL-1beta production preincubated with compound for 1 hrs followed by LPS-stimulation and measured after 24 hrs by ELISA analysis; format: functional, cell-based
[6] = target: T1, MAP kinase p38 (Mus musculus) (UniProt P47811+O08911+Q9WUI1+Q9Z1B7); experiment: Inhibition of LPS-induced p38 MAPK signaling activation in mouse RAW264.7 cells assessed as inhibition of p38 alpha phosphorylation preincubated with compound for 1 hrs followed by LPS stimulation and measured after 24 hrs by Western blot analysis; format: cell-based; details: dose 1-5 µM
[7] = tested on: RAW264.7; experiment: Antiinflammatory activity in mouse RAW264.7 cells assessed as suppression of LPS-induced iNOS expression preincubated with compound for 1 hrs followed by LPS-stimulation and measured after 24 hrs by Western blot analysis; format: functional, cell-based; details: dose 1-5 µM
[8] = target: T1, MAP kinase p38 (Mus musculus); experiment: Inhibition of LPS-induced p38 MAPK signaling activation in mouse RAW264.7 cells assessed as reduction of MK2 phosphorylation preincubated with compound for 1 hrs followed by LPS stimulation and measured after 24 hrs by Western blot analysis; format: cell-based; details: dose 1-5 µM
[9] = tested on: RAW264.7; experiment: Antiinflammatory activity in mouse RAW264.7 cells assessed as suppression of LPS-induced COX-2 expression preincubated with compound for 1 hrs followed by LPS-stimulation and measured after 24 hrs by Western blot analysis; format: functional, cell-based; details: dose 1-5 µM
[10] = tested on: Rattus norvegicus; experiment: Antiarthritic activity against adjuvant arthritis-induced Sprague-Dawley rat model assessed as reduction in body weight loss at 10 to 30 mg/kg, IG pre-administered with FCA for 10 days followed by compound administration once daily for 14 days and measured every 4 days; format: functional, organism-based; details: dose 10-30 mg/kg, time 14.0 day
[11] = tested on: Rattus norvegicus; experiment: Antiarthritic activity against adjuvant arthritis-induced Sprague-Dawley rat model assessed as alleviation of synovial cell proliferation at 10 to 30 mg/kg, IG pre-administered with FCA for 10 days followed by compound administration once daily for 14 days by H&E staining microscopic analysis; format: functional, organism-based; details: dose 10-30 mg/kg, time 14.0 day
[12] = tested on: Rattus norvegicus; experiment: Antiarthritic activity against adjuvant arthritis-induced Sprague-Dawley rat model assessed as decrease in IL-1beta level in serum pre-administered with FCA for 10 days followed by intragastric administration of compound once daily for 14 days by ELISA analysis; format: functional, organism-based; details: dose 10-30 mg/kg, route ig, time 14.0 day
[13] = target: Mitogen-activated protein kinase 14 (Mus musculus) (UniProt P47811); experiment: Thermal stabilization of P38alpha in LPS-induced mouse RAW264.7 cells at 30 uM preincubated with compound for 1 hrs followed by LPS stimulation and measured after 24 hrs at 50 to 55 degreeC by cellular thermal shift assay; format: cell-based
[14] = tested on: Rattus norvegicus; experiment: Antiarthritic activity against adjuvant arthritis-induced Sprague-Dawley rat model assessed as improvement of arthritic index at 10 to 30 mg/kg, IG pre-administered with FCA for 10 days followed by compound administration once daily for 14 days and measured every 4 days; format: functional, organism-based; details: dose 10-30 mg/kg, time 14.0 day
[15] = tested on: Rattus norvegicus; experiment: Antiarthritic activity against adjuvant arthritis-induced Sprague-Dawley rat model assessed as decrease in TNF-alpha level in serum pre-administered with FCA for 10 days followed by intragastric administration of compound once daily for 14 days by ELISA analysis; format: functional, organism-based; details: dose 10-30 mg/kg, route ig, time 14.0 day
[16] = tested on: RAW264.7; experiment: Antiinflammatory activity in mouse RAW264.7 cells assessed as inhibition of LPS-induced TNF-alpha production preincubated with compound for 1 hrs followed by LPS-stimulation and measured after 24 hrs by ELISA analysis; format: functional, cell-based
[17] = tested on: Rattus norvegicus; experiment: Antiarthritic activity against adjuvant arthritis-induced Sprague-Dawley rat model assessed as alleviation of inflammatory cell infiltration at 10 to 30 mg/kg, IG pre-administered with FCA for 10 days followed by compound administration once daily for 14 days by H&E staining microscopic analysis; format: functional, organism-based; details: dose 10-30 mg/kg, time 14.0 day

Sequence of Mitogen-activated protein kinase 14 (Mus musculus) (P47811 whole entry): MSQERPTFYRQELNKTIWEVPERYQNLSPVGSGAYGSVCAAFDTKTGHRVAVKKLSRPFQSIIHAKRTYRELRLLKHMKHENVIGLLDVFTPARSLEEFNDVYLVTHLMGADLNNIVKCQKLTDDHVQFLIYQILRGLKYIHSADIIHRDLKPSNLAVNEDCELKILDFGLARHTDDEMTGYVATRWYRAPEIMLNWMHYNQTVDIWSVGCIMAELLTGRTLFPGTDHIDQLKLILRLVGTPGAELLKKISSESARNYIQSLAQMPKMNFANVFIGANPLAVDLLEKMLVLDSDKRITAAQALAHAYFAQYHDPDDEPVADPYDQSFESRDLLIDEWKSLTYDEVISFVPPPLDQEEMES

SMILES	inhibition at 20 µM [1] [%]	Activity [2]	other results
O=C1c2ccccc2-n2c1nc1ccc(NS(=O)(=O)c3ccc(OC(F)(F)F)cc3)cc1c2=O	63.6	Non-Toxic	–
CC(C)c1cc(C(C)C)c(S(=O)(=O)Nc2ccc3nc4n(c(=O)c3c2)-c2ccccc2C4=O)c(C(C)C)c1	81.2	Non-Toxic	IC50 [3]: 4.21 µM
O=C1c2ccccc2-n2c1nc1ccc(NS(=O)(=O)c3ccc(F)cc3)cc1c2=O	85.4	Non-Toxic	IC50 [3]: 2.73 µM
O=C1c2ccccc2-n2c1nc1ccc(NS(=O)(=O)c3ccccc3OC(F)(F)F)cc1c2=O	82.1	Non-Toxic	IC50 [3]: 3.88 µM
Cc1ccc(S(=O)(=O)Nc2ccc3c(c2)C(=O)c2nc4ccccc4c(=O)n2-3)cc1	55.8	Non-Toxic	–
O=C1c2ccccc2-n2c1nc1ccc(NS(=O)(=O)c3ccccc3C(F)(F)F)cc1c2=O	74.9	Non-Toxic	–
O=C1c2cc(NS(=O)(=O)c3ccc(Br)cc3)ccc2-n2c1nc1ccccc1c2=O	18.8	Non-Toxic	–
COc1ccc(S(=O)(=O)Nc2ccc3nc4n(c(=O)c3c2)-c2ccccc2C4=O)c(OC)c1	78	Non-Toxic	–
O=C1c2ccccc2-n2c1nc1ccc(NS(=O)(=O)c3ccccc3)cc1c2=O	14.5	Non-Toxic	–
O=C1c2cc(NS(=O)(=O)c3ccccc3F)ccc2-n2c1nc1ccccc1c2=O	49.1	Non-Toxic	–
Nc1ccc2c(c1)C(=O)c1nc3ccccc3c(=O)n1-2	26.7	–	–
CC(C)(C)c1ccc(S(=O)(=O)Nc2ccc3c(c2)C(=O)c2nc4ccccc4c(=O)n2-3)cc1	20.6	Non-Toxic	–
COc1ccc(S(=O)(=O)Nc2ccc3nc4n(c(=O)c3c2)-c2ccccc2C4=O)cc1	94	Non-Toxic	Activity [4]: Dose-Dependent Effect; Activity [5]: Dose-Dependent Effect; IC50 [5]: 8.48 µM; inhibition [6]: Dose-Dependent Effect; Activity [7]: Dose-Dependent Effect; inhibition [8]: Dose-Dependent Effect; Activity [9]: Dose-Dependent Effect; IC50 [3]: 1.25 µM; Activity [10]: Active; Activity [11]: Active; Activity [12]: Dose-Dependent Effect; Activity [13]: Active; Activity [14]: Active; Activity [15]: Dose-Dependent Effect; Activity [16]: Dose-Dependent Effect; IC50 [16]: 11.5 µM; Activity [17]: Active
O=C1c2ccccc2-n2c1nc1ccc(NS(=O)(=O)c3ccc(Br)cc3)cc1c2=O	34.2	Non-Toxic	–
COc1ccc(S(=O)(=O)Nc2ccc3c(c2)C(=O)c2nc4ccccc4c(=O)n2-3)cc1	56.4	Non-Toxic	–
CC(=O)Nc1ccc(S(=O)(=O)Nc2ccc3c(c2)C(=O)c2nc4ccccc4c(=O)n2-3)cc1	17.3	Non-Toxic	–
O=C1c2cc(NS(=O)(=O)c3ccccc3OC(F)(F)F)ccc2-n2c1nc1ccccc1c2=O	46.2	Non-Toxic	–
O=C1c2cc(NS(=O)(=O)c3ccc(F)cc3)ccc2-n2c1nc1ccccc1c2=O	42.5	Non-Toxic	–

SMILES	inhibition at 20 µM [1] [%]	Activity [2]	other results
COc1ccc(S(=O)(=O)Nc2ccc3c(c2)C(=O)c2nc4ccccc4c(=O)n2-3)c(OC)c1	55.1	Non-Toxic	–
O=C1c2ccccc2-n2c1nc1ccc(NS(=O)(=O)c3ccccc3F)cc1c2=O	88.2	Non-Toxic	IC50 [3]: 2.72 µM
CC(C)c1cc(C(C)C)c(S(=O)(=O)Nc2ccc3c(c2)C(=O)c2nc4ccccc4c(=O)n2-3)c(C(C)C)c1	31.6	Non-Toxic	–
COc1ccc(S(=O)(=O)Nc2ccc3c(c2)C(=O)c2nc4ccccc4c(=O)n2-3)cc1OC	57.2	Non-Toxic	–
Cc1ccc(S(=O)(=O)Nc2ccc3nc4n(c(=O)c3c2)-c2ccccc2C4=O)cc1	90.2	Non-Toxic	IC50 [3]: 2.89 µM
CC(=O)Nc1ccc(S(=O)(=O)Nc2ccc3nc4n(c(=O)c3c2)-c2ccccc2C4=O)cc1	47.2	Non-Toxic	–
O=C1c2cc(NS(=O)(=O)c3ccccc3C(F)(F)F)ccc2-n2c1nc1ccccc1c2=O	54.3	Non-Toxic	–
O=C1c2cc(NS(=O)(=O)c3cccc(F)c3)ccc2-n2c1nc1ccccc1c2=O	37.5	Non-Toxic	–
CC(C)(C)c1ccc(S(=O)(=O)Nc2ccc3nc4n(c(=O)c3c2)-c2ccccc2C4=O)cc1	58.2	Non-Toxic	–
O=C1c2ccccc2-n2c1nc1ccccc1c2=O [TRYPTANTHRIN]	31.3	–	–
O=C1c2cc(NS(=O)(=O)c3ccc(OC(F)(F)F)cc3)ccc2-n2c1nc1ccccc1c2=O	42.9	Non-Toxic	–
O=C1c2ccccc2-n2c1nc1ccc(NS(=O)(=O)c3c(Cl)cccc3Cl)cc1c2=O	64.4	Non-Toxic	–
Nc1ccc2nc3n(c(=O)c2c1)-c1ccccc1C3=O	38.1	–	–
O=C1c2cc(NS(=O)(=O)c3c(Cl)cccc3Cl)ccc2-n2c1nc1ccccc1c2=O	38.4	Non-Toxic	–
COc1ccc2c(c1)c(CC(=O)O)c(C)n2C(=O)c1ccc(Cl)cc1 [INDOMETHACIN]	32.1	Non-Toxic	–
COc1ccc(S(=O)(=O)Nc2ccc3nc4n(c(=O)c3c2)-c2ccccc2C4=O)cc1OC	73	Non-Toxic	–
O=C1c2cc(NS(=O)(=O)c3ccccc3)ccc2-n2c1nc1ccccc1c2=O	28.1	Non-Toxic	–
O=C1c2ccccc2-n2c1nc1ccc(NS(=O)(=O)c3cccc(F)c3)cc1c2=O	64.4	Non-Toxic	–
